# Assay results published in patent US6207648A, “Methods of using cytochrome P450 reductase for the enhancement of P450-based anti-cancer gene therapy” (priority 1998, dated 2001).
# “Also recorded” adds a separate entry of the source. Like-named read-outs stand apart in the source and are kept apart here.
# How the values were obtained:
# [1] = system: 9L gliosarcoma cells (parental, CYP2B1+, CYP2B1+ RED+++); test: In vitro growth inhibition assay, XTT (Example 1); details: lines PR11, PR7 vs P3, P17; growth inhibition assay
# Experimental: Cells (1000/well) seeded in 96-well plates were treated with the indicated concentrations of CPA for 4 days. Corresponding controls received no drug treatment. Cell survival was determined by an XTT calorimetric assay. Data (mean for triplicate samples) were expressed as growth ratio (%), i. e., cell number (XTT activity) in drug treated plates as a percentage of the corresponding drug-free controls.
# Cells (500/well) seeded in 96-well plates were treated with 1 mM cyclophosphamide in the absence or presence of the RED inhibitors AADP (0.5 mM) or DPI (5 μM). Corresponding controls received no drug treatment. Cell survival was determined by an XTT colorimetric assay. Data (mean for triplicate samples) are expressed as growth ratio (%), i.e., cell number (XTT activity) in drug treated plates as a percentage of the corresponding drug-free controls and are representative of 2-3 independent experiments. AADP and DPI were added to the cells 30 minutes prior to CPA treatment.
# (B) Growth inhibition assay--Cells (1000/well) seeded in 96 well plates were treated with the indicated concentrations of CPA for 4-5 days. Corresponding controls received no drug treatment. Cell survival was determined by an XTT colorimetric assay, a cell proliferation assay that measures mitochondrial dehydrogenase activity of viable cells (Scudiero, D. A., et al., Cancer Res. 48:4827-4833 (1988)).
# 9L-lacZ cells = test: Bystander cytotoxicity in co-culture with lacZ-marked 9L cells; format: cell-based, rat; details: 1 mM CPA, 5 days
# Experimental: CYP2B1^+ cells (FIG. 6A) and CYP2B1^+ RED^++ cells (FIG. 6C) were mixed with equal numbers of lacZ-marked 9L cells and cultured in the absence (FIGS. 6A and 6C) or in the presence (FIGS. 6B and 6D) of 1 mM CPA. Shown are 0.5% glutaraldehyde-fixed cells, 5 days after beginning drug treatment, stained with X-Gal for 4 hours to visualize the 9L-lacZ cells (dark staining).
# [2] = system: human P450 genes expressed in 9L cells; test: Semicarbazide trapping/fluorescence assay for 4-hydroxy metabolites in 9L/P450 cells; format: in vitro ADME; details: 2 mM, 24 h
# Experimental: Each of the indicated 9L cell lines was seeded on a 48-well plate in duplicate at 2×10^4 cells/well. […] Background fluorescence observed in 9L/Babe cells was subtracted from each sample.
# Semicarbazide trapping/fluorescence assay for 4-hydroxy metabolites: 9L/P450 cells were seeded on a 48 well plate in duplicate at 2×10^4 cells/ well. […] Culture media, 400 μl, was removed and then treated with 160 μl of ice cold 5.5% (w/v) ZnSO4, 160 μl ice cold saturated Ba(OH)2, and 80 μl ice cold 0.01 M HCl. The mixture was vortexed and then centrifuged at 16,000 g for 15 minutes. 300 μl of the supernatant was transferred under dim light to a clean tube containing 540 μl of water and 160 μl of freshly prepared fluorescent reagent (60 mg 3-aminophenol and 60 mg hydroxylamine-HCl per 10 ml of 1 M HCl). The tubes were vortexed and heated at 90° C. for 20 minutes. Fluorescent readings were obtained at 350 nm (excitation), and 515 nm (emission) using 800 μl of each sample. Fluorescent values were converted to nmol 4-hydroxy metabolite/ml of original culture media based on standard curves generated using 4-hydroperoxy-CPA and then normalized to units of nmol 4-hydroxy metabolite formed per 24 hours per 10^6 cells.
# 9L/pBabe bystander cells = test: Bystander cytotoxicity/co-culture with cell culture inserts; format: cell-based, rat; details: for cytotoxicity at 670 µM: Rattus norvegicus, 96 h, 9L/2B6/reductase, 0.67 mM
# Experimental: FIGS. 18A and 18B are graphs depicting the bystander cytotoxicity of 9L/2B6/reductase and 9L/2B6 cells. In FIG. 18A, bystander cytotoxicity of 9L/2B6/reductase cells is compared to that of 9L/2B6 cells. In both cases, 9L/pBabe served as the bystander cells. 9L/pBabe cells were plated in duplicate at 10^5 cells/well of a 6-well plate (lower chamber). 9L/2B6/reductase cells or 9L/2B6 cells were plated in 25 mm cell culture inserts (upper chamber) at concentrations ranging from 10^4 to 6×10^5 cells, corresponding to ratios of 0.1 to 6 relative to the bystander 9L/pBabe cells growing in the lower chamber, as shown on the x-axis. Cells were incubated in a total volume of 3 ml Dulbecco's minimal essential medium (DMEM), 10% FBS, containing 1 mM CPA, final CPA concentration.
# The experimental design was the same as in FIG. 18A, except that the final drug concentration was 0.67 mM. Data shown for both panels correspond to the survival of 9L/pBabe bystander cells in the lower chamber.
# Bystander cytotoxicity/co-culture experiments: 9L/pBabe cells were plated in duplicate at 10^5 cells/well in the lower chamber of a 6-well Falcon co-culture plate (30 mm diameter wells) (Falcon 3046). 9L/2B6/reductase cells were plated in 25 mm cell culture inserts (0.4 μm pore size; Falcon 3090), at dilutions ranging from 0. 1 to 6 times the number of 9L/pBabe cells plated in the lower chamber. […] Relative cell numbers were quantitated 4 days later by crystal violet staining.
# [3] = system: 9L tumors in female Fischer 344 rats; test: In vivo cytotoxicity / tumor excision assay, s.c. 9L tumors; set-up: species or system rat
# Experimental: FIG. 9 is a graph depicting the results of an in vivo tumor excision assay, which quantitates the extent of CPA-induced tumor cell kill in rats in vivo for 9L tumors, compared to 9L tumors engineered to express P450 alone (CYP2B1^+) or P450 in combination with RED (CYP2B1^+ RED^+++).Female Fischer 344 rats were inoculated with parental 9L, CYP2B1^+, and CYP2B1^+ RED^+++ tumor cells by subcutaneous injection of 2×10^6 tumor cells/0.2 ml in the hindleg as described below in the "Materials and Methods" section of Example 1. At 2 weeks after tumor implantation, each animal received a single injection of CPA (50 or 100 mg/kg body weight) or saline as control. Twenty four hours later, tumors were excised, and single cell suspensions were prepared for assay of colony formation activity. Results are presented as mean survival fractions as compared to control groups, for 4 or 5 determinations; bars, standard error (SE).
# In vivo cytotoxicity assay: Tumor cells were grown subcutaneously as solid tumors in female Fischer 344 rats (120-150g). Each rat was inoculated by subcutaneous injection of one tumor cell line at the right thigh and a second tumor cell line at the left thigh at 2×10^6 cells/site. Rats were randomized and divided into three groups. One group was injected with saline as a control. The other two groups were treated with CPA at 50 mg/kg or 100 mg/kg body weight given as a single intraperitoneal injection 2 weeks after tumor implantation. At 24 hours after CPA injection, the rats were sacrificed and soaked briefly in 75% ethanol. The tumors were excised, suspended in DMEM, and minced under sterile conditions. […] The single cell suspensions were counted and plated at densities of 200, 2×10^3 and 2×10^4 cells/well of a 6-well plate, in duplicate, to determine cell viability by a colony formation assay. […] Cells were grown for 7 days and colonies (>50 cells) were then stained with crystal violet and counted. Results are expressed as the surviving fractions SEM of cells from drug treated groups compared to untreated controls.
# [4] = system: 9L gliosarcoma cells (parental, CYP2B1+, CYP2B1+ RED+++); test: In vitro colony formation cytotoxicity assay (Example 1); format: cell-based, rat
# Description: FIGS. 2A and 2C depict the results of a colony formation cytotoxicity assay.
# FIG. 3A depicts results from a colony formation cytotoxicity assay. […] The survival fraction is expressed as the number of colonies in each treatment group compared to the untreated control.
# Corresponding controls received no drug treatment.
# [5] = system: 9L/P450 gliosarcoma cells; test: Growth inhibition assay of 9L/P450 cells, crystal violet (Example 2); format: cell-based, rat; details: for inhibition at 1000 µM: Rattus norvegicus, 96 h, 1 mM, 4 days
# Experimental: Control cells for each cell line received no drug treatment. Relative cell number at the end of the experiment was determined by crystal violet staining as described below in "Material and Methods" of Example 2. Data (mean±SD, n=3) are based on the crystal violet absorbance in drug-treated plates as a percent of the corresponding drug-free controls.
# Briefly, culture dishes were washed once with phosphate buffered saline (PBS), stained for 10 minutes with crystal violet (1.25 g crystal violet (Sigma) dissolved in 500 ml containing 50 ml of 37% formaldehyde and 450 ml methanol), and then washed with PBS, twice for 20 minutes per wash. Absorbance values were measured in an SLT Spectra microtiter plate reader using a 595 nm filter. Background absorbance determined from wells containing culture media alone was subtracted from each value.
structure (smiles),measurement,setting,value
"O=P1(N(CCCl)CCCl)NCCCO1 (centres unmarked) [CPA, cyclophosphamide]",cytotoxic response of CYP2B1+ cells on RED overexpression,[1],significantly enhanced the cytotoxic response
same,bystander cytotoxicity of CYP2B1+ 9L cells toward CYP2B1- 9L cells,9L-lacZ cells,"substantial, albeit incomplete, bystander cytotoxicity"
same,bystander killing of 9L/lacZ cells by co-culture with CYP2B1+ RED+++ cells,9L-lacZ cells,near complete killing
same,elimination of CYP2B1+ and CYP2B1+ RED+++ cells,9L-lacZ cells; unstained cells,essentially eliminated
same,effect of RED transduction on drug activation in 9L parental cells,[2],did not stimulate drug activation
same,effect of RED transduction on cytotoxic metabolites accumulating in the culture medium,[2]; CYP2B6 and CYP2C18-Met cells,significant increase in cytotoxic metabolites
same,bystander killing of 9L/pBabe cells by 9L/2B6/reductase vs 9L/2B6 cells,"9L/pBabe bystander cells; 1 mM CPA, cell ratio for 50% bystander cytotoxicity",approximately 3 fold
same,bystander cytotoxic effect on non-P450-expressing 9L cells,9L/pBabe bystander cells; 2B6 and RED-transduced tumor cells,strong cell contact-independent bystander cytotoxic effect; also recorded: striking bystander cytotoxic effect
same,cytotoxicity at 670 µM,"9L/pBabe bystander cells; P450:non-P450 ratio approximately 0.5-1, read-out: bystander toxicity toward non-P450 tumor cells",~40%
same,cytotoxicity at 670 µM,"9L/pBabe bystander cells; cell ratio >3, read-out: bystander toxicity toward non-P450 cells",≥ 80%
same,killing of CYP2B1+ tumors compared to wild type 9L tumors,"[3]; 100 mg/kg, 24 h",up to 10 fold
same,additional tumor cell killing in CYP2B1+ RED+++ tumors,[3]; 24 h after CPA,approximately 10 fold
same,overall increase in tumor cell kill in vivo over hepatic drug activation alone,[3]; CYP2B1 + RED,50-100 fold
same,sensitization of 9L cells to CPA by RED overexpression alone,[4]; line 9L-R (RED without CYP2B1),did not sensitize 9L tumor cells
same,cytotoxic response of CYP2B1+ cells on RED overexpression,"[4]; lines PR11, PR7 vs P3, P17, colony formation assay",significantly enhanced the cytotoxic response
same,effect of P450 reductase overexpression on cytotoxicity,"[5]; 9L/2B6 and 9L/2C18-Met cells, FIG. 15",markedly increased the cytotoxicity
same,"cytotoxicity with RED transduction alone, in absence of P450","[5]; 9L/RED, FIG. 15",did not confer CPA or IFA cytotoxicity
same,sensitivity of P450-negative cells,"[5]; 9L/wt and 9L/pBabe, millimolar concentrations",insensitive
same,inhibition at 1000 µM,[5]; 9L/2B6,> 95%
same,inhibition at 1000 µM,[5]; 9L/2C9 and 9L/2C18-Thr,~60%
same,inhibition at 1000 µM,[5]; 9L/2C19 and 9L/2C18-Met,75 to 85%
same,inhibition at 1000 µM,[5]; 9L/3A4,~90%
same,efficiency of P450 genes in chemosensitizing 9L cells to CPA,[5]; six human P450 genes,2B6>2C18-Met~3A4>others
